The values that follow come from patent publication US20040171640A1, “Substituted 1-phenethylpiperidine compounds used as inter alia analgesics” (priority 2001, published 2004).

Experiment [1] deals with tail flick (pain latency) in mice. The experiment is described as follows: Analgesic testing by tail flick test in mice. Type of experiment: in vivo. The conditions noted are these: Mus musculus, read-out: Antinociceptive action in % relative to control group; for inhibition in vivo at 1 mg/kg: 1 mg/kg intravenous. An excerpt:
2.) Analgesic Testing by Tail Flick Test in Mice
The mice were each individually put in a test cage and the base of the tail was exposed to the focused heat flux from an electric lamp (tail flick type 50/08/1.bc, Labtec, Dr. Hess). The lamp intensity was so set that the time from switching on of the lamp until sudden flicking away of the tail (pain latency) in untreated mice amounted to 3 to 5 seconds. Prior to administration of the solutions containing the compound according to the invention or the respective comparison solutions, the mice were pre-tested twice within five minutes and the average value of these measurements was calculated as a pre-test average value.
The solutions of the compound according to the invention of the general formula I and the comparison solutions were then administered intravenously. Pain was measured in each case 10, 20, 40 and 60 minutes after intravenous administration. The analgesic action was determined as an increase in pain latency (% of the maximum possible antinociceptive effect) in accordance with the following formula: […]
In this formula, the time T0 is the latency time prior to administration, the time T1 is the latency time after administration of active ingredient combination and the time T2 is the maximum exposure period (12 seconds)
2.) Analgesic Testing by Tail Flick Test in Mice:
The in-depth investigation into analgesic efficacy was performed using the tail flick test in mice, as described above.

For experiment [2], the system named is phenylquinone-induced writhing in mice. The experiment is described as follows: Analgesic testing by phenylquinone-induced writhing test in mice. In kind it is in vivo, male NMRI mice. Particulars: Mus musculus, read-out: Antinociceptive action in % relative to control group; for inhibition in vivo at 10 mg/kg: 10 mg/kg intravenous. The protocol:
1.) Analgesic Testing by Writhing Test in Mice
The investigation into analgesic efficacy was performed by phenylquinone-induced writhing in mice (modified after: I. C. Hendershot J. Forsaith, J. Pharmacol. Exp. There. 125, 237-240 (1959)). The corresponding literature description is hereby introduced as a reference and is deemed to be part of the disclosure.
Male NMRI mice weighing from 25 to 30 g were used for this purpose. Groups of 10 animals per substance dose received, 10 minutes after intravenous administration of the compounds tested, 0.3 ml/mouse of a 0.02% aqueous solution of phenylquinone (phenylbenzoquinone, Sigma, Deisenhofen; solution prepared with addition of 5% of ethanol and stored in a water bath at 45° C.) administered intraperitoneally. The animals were placed individually in observation cages. A push button counter was used to record the number of pain-induced stretching movements (writhing reactions=straightening of the torso with stretching of the rear extremities) for 5-20 minutes after phenylquinone administration. The control was provided by animals who received only physiological common salt solution.
The compounds were tested at the standard dosage of 10 mg/kg. Inhibition of the writhing reactions by a substance was calculated according to the following formula: [formula]
1.) Analgesic Testing by Writhing Test in Mice:
The in-depth investigation into analgesic efficacy was performed using phenylquinone-induced writhing in mice, as described above.

For `O=C(CC1CCN(CCc2ccccc2)CC1)Nc1ccccc1` [Example 1, 2-(1-Phenethyl-piperidin-4-yl)-N-phenylacetamide], in experiment [1] (0.1 mg/kg intravenous), the inhibition in vivo at 0.1 mg/kg turned out to be 56%.
Turning to `O=C(C=C1CCN(CCc2ccccc2)CC1)Nc1ccccc1` [Example 3, 2-(1-Phenethyl-piperidine-4-ylidene)-N-phenylacetamide], the inhibition in vivo at 10 mg/kg in experiment [2] is 69%.
On the same count and under the same terms, the same measure for `COc1ccccc1NC(=O)CC1CCN(CCc2ccccc2)CC1` [Example 4, N-(2-Methoxyphenyl)-2-(1-phenethylpiperidin-4-yl)-acetamide]: 100%; for `COc1ccc(NC(=O)CC2CCN(CCc3ccccc3)CC2)cc1` [Example 5, N-(4-Methoxyphenyl)-2-(1-phenethyl-piperidin-4-yl)-acetamide]: 100%.
Still for that read-out and setting: the value for `O=C(CC1CCN(CCc2ccccc2)CC1)Nc1ccccc1OC(F)(F)F` [Example 6, 2-(1-Phenethyl-piperidin-4-yl)-N-(2-trifluoromethoxy-phenyl)acetamide] was 99%.
In the case of `COc1ccc(NCCC2CCN(CCc3ccccc3)CC2)cc1` [Example 7, (4-Methoxyphenyl)-[2-(1-phenethylpiperidin-4-yl)ethyl]amine], the inhibition in vivo at 10 mg/kg in experiment [2] was 100%.
On the same count and under the same terms, the same measure for `Oc1ccccc1NCCC1CCN(CCc2ccccc2)CC1` [Example 8, 2-[2-(1-Phenethylpiperidin-4-yl)ethylamino]phenol]: 100%.
For `COc1cccc(NC(=O)CC2CCN(CCc3ccccc3)CC2)c1` [Example 9, N-(3-Methoxyphenyl)-2-(1-phenethyl-piperidin-4-yl)acetamide], the inhibition in vivo at 1 mg/kg in experiment [2] (1 mg/kg intravenous) is 56%.
With `COc1ccc(NC(=O)CC2CCN(CCc3ccccc3)CC2)cc1Cl` [Example 10, N-(3-Chloro-4-methoxyphenyl)-2-(1-phenethylpiperidin-4-yl)acetamide], the inhibition in vivo at 10 mg/kg in experiment [2] is 100%.
Regarding `O=C(CC1CCN(CCc2ccccc2)CC1)Nc1ccc(Cl)cc1F` [Example 11, N-(4-Chloro-2-fluorophenyl)-2-(1-phenethylpiperidin-4-yl)acetamide], in experiment [2], the inhibition in vivo at 10 mg/kg turned out to be 100%.
For `O=C(CC1CCN(CCc2ccccc2)CC1)Nc1cccc(C(F)(F)F)c1` [Example 12, 2-(1-Phenethylpiperidin-4-yl)-N-(3-trifluoromethyl-phenyl)acetamide], in experiment [1], the inhibition in vivo at 1 mg/kg was found to be 21%.
For the compound `FC(F)(F)c1cccc(NCCC2CCN(CCc3ccccc3)CC2)c1` [Example 13, [2-(1-Phenethyl-piperidin-4-yl)ethyl]-(3-trifluoromethyl-phenyl)amine], in experiment [1], the inhibition in vivo at 1 mg/kg came out at 31%.
Consider `COc1cccc(NCCC2CCN(CCc3ccccc3)CC2)c1` [Example 14, (3-Methoxyphenyl)-[2-(1-phenethylpiperidin-4-yl)ethyl]amine], for which the inhibition in vivo at 10 mg/kg in experiment [2] was determined as 100%.
In the case of `Oc1ccc(NCCC2CCN(CCc3ccccc3)CC2)cc1` [Example 15, 4-[2-(1-Phenethylpiperidin-4-yl)ethylamino]phenol], the inhibition in vivo at 10 mg/kg in experiment [2] is 100%.
As to `Fc1cc(Cl)ccc1NCCC1CCN(CCc2ccccc2)CC1` [Example 16, (4-Chloro-2-fluorophenyl)-[2-(1-phenethylpiperidin-4-yl)ethyl]amine], the inhibition in vivo at 10 mg/kg in experiment [2] was determined as 80%; in experiment [1] (10 mg/kg intravenous), 31%.
As to `Oc1cccc(NCCC2CCN(CCc3ccccc3)CC2)c1` [Example 17, 3-[2-(1-Phenethylpiperidin-4-yl)ethylamino]phenol], in experiment [2], the inhibition in vivo at 10 mg/kg was determined as 100%.
On the same count and under the same terms, the same measure for `COc1ccc(N(CCC2CCN(CCc3ccccc3)CC2)C(C)=O)cc1Cl` [Example 18, N-(3-Chloro-4-methoxyphenyl)-N-[2-(1-phenethylpiperidin-4-yl)ethyl]acetamide]: 100%.
For `CCC(=O)N(CCC1CCN(CCc2ccccc2)CC1)c1ccc(OC)c(Cl)c1` [Example 19, N-(3-Chloro-4-methoxyphenyl)-N-[2-(1-phenethylpiperidin-4-yl)ethyl]propionamide], the inhibition in vivo at 10 mg/kg in experiment [2] was 100%. Besides, in experiment [1], the inhibition in vivo at 1 mg/kg is 35%.
In the same order, the values of `COc1ccc(N(CCC2CCN(CCc3ccccc3)CC2)C(=O)c2ccccc2)cc1Cl` [Example 20, N-(3-Chloro-4-methoxyphenyl)-N-[2-(1-phenethylpiperidin-4-yl)ethyl]benzamide] are 88% and 23%.
For `CC(=O)N(CCC1CCN(CCc2ccccc2)CC1)c1cccc(C(F)(F)F)c1` [Example 21, N-[2-(1-Phenethylpiperidin-4-yl)ethyl]-N-(3-trifluoromethylphenyl)acetamide] the same measures were 100% and 34%.
Take `CC(=O)N(CCC1CCN(CCc2ccccc2)CC1)c1ccccc1` [Example 22, N-[2-(1-Phenethylpiperidin-4-yl)ethyl]-N-phenylacetamide]: the inhibition in vivo at 1 mg/kg in experiment [1] was 24%.
Regarding `CCC(=O)N(CCC1CCN(CCc2ccccc2)CC1)c1ccccc1` [Example 23, N-[2-(1-Phenethylpiperidin-4-yl)ethyl]-N-phenylpropionamide], the inhibition in vivo at 10 mg/kg in experiment [2] was 99%.
For `O=C(c1ccccc1)N(CCC1CCN(CCc2ccccc2)CC1)c1ccccc1` [Example 24, N-[2-(1-Phenethylpiperidin-4-yl)ethyl]-N-phenylbenzamide], the inhibition in vivo at 10 mg/kg in experiment [2] turned out to be 100%. Also, the inhibition in vivo at 1 mg/kg in experiment [1] amounted to 24%.
